Assay results: PMC5760531, “Action Potential Recording and Pro-arrhythmia Risk Analysis in Human Ventricular Trabeculae” (Frontiers in Physiology, 2018)

System: human ventricular trabeculae
Experiment: Action potential recording and pro-arrhythmic score analysis in human ventricular trabeculae (hVT);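 further: sharp microelectrode action potential recordings at 37°C in Tyrode-perfused trabeculae, 4 cumulative concentrations each applied 31 min, values averaged over last 30 APs, vehicle 0.1% DMSO as control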
Settings: for Refractoriness Escape (raw data) / Beat Escape (raw data) / EADs (raw data): n=4 trabeculae
Method: Briefly, the human heart was transferred into a dissection vessel containing a cold (4°C), fresh proprietary dissection solution. The heart was maintained completely submerged in dissection solution. Ventricular trabeculae were dissected and transferred to the recording chamber.
Briefly, a single tissue was mounted into the experimental chamber filled with oxygenated Tyrode's external solution. The temperature of the solution was maintained at 37°C with flow rate at 5 mL per minute. The tissue was allowed to equilibrate for 30–60 min with stimulation (3 V, 3 ms) at a frequency of 1.0 Hz. High impedance borosilicate microelectrodes were prepared with a tip resistance of 10–20 MΩ once filled with 3 M KCl. Upon tissue impalement, the membrane potential was allowed to stabilize (typically, around −85 mV). Tissues with resting membrane potentials more positive than −75 mV were rejected. Bipolar stimulation at 1.5x threshold was applied and recordings were performed in continuous mode with sampling at 20 kHz using ADInstruments and LabChart Software.
Interruption of perfusion/oxygenation; (2). Absence of Aps following stimulation at baseline; (3). Time frame of drug exposure not respected; (4). Unstable response to stimulation at baseline; (5). Resting membrane potential (RMP) > −75 mV; 7). Maximal amplitude of AP (AMAX) <70 mV; 8). AP duration at 90% repolarization (APD90) <200 ms or >450 ms.
Experimental Procedure: Each test article was evaluated at 4 concentrations in 4 ventricular trabeculae derived from a minimum of 2 donor hearts. Testing concentrations were chosen based upon human free ETPC, aiming to cover 1–100-fold of human free ETPC. […] Briefly, following stabilization of each tissue, APs were collected and assessed for 31 min in vehicle control solution (Tyrode with 0.1% DMSO) at stimulation frequencies of 1 Hz for 25 min, 2 Hz for 3 min and then 1 Hz for 3 min. Following this vehicle control period, 4 concentrations of a test compound were applied sequentially and cumulatively. Each concentration was applied for 31 min with the same stimulation sequence as in vehicle controls.
For each frequency tested, the last 30 APs acquired at the end of the period were averaged for vehicle controls and for each test article concentration. Analysis at 1 Hz included only the last 30 APs of the initial 25-min incubation period. The following AP parameters and pro-arrhythmia variables were analyzed offline upon the completion of recordings:
• RMP (mV) • AMAX (mV) • AP duration at percent repolarization (APD20, APD30, APD50, APD60, APD90) (ms) • Short term variability analysis of AP duration (STV): Beat-to-beat variability of repolarization was quantified as STV from APD90 Poincare plots over a period of 30 sec.
Compound effects were quantified relative to the data collected during the vehicle control period (see Figure 1). […] Additionally, based on AnaBios historical data, threshold values for changes over baseline control for AP instability, APD alternans, Maximum APD dispersion and ERP (APD) were based upon an effect level of 10%. When applicable, differences were tested for statistical significance using the unpaired Student's t-test. A value of P < 0.05 was considered significant.
AP parameters and pro-arrhythmia variables were combined into a meaningful, single score to assess the pro-arrhythmic risk of a compound at each concentration tested. The pro-arrhythmic potential of compounds at 1 or 2 Hz was determined by assigning a weighted scale to each variable (Table 1).

Structure (SMILES): Nc1nnc(-c2cccc(Cl)c2Cl)c(N)n1 [LAMOTRIGINE, Lamotrigine]
- Refractoriness Escape (raw data) (1Hz, 59-FOLD free ETPC (17µM)): 0
- AMAX (average raw data) (2Hz, 0.6-FOLD free ETPC (17µM)): 97
- AMAX percentage change compared to vehicle control (2Hz, 0.6-FOLD free ETPC (17µM)): -7%
- APD30 (average raw data) (2Hz, 0.6-FOLD free ETPC (17µM)): 107
- APD30 percentage change compared to vehicle control (2Hz, 0.6-FOLD free ETPC (17µM)): 2%
- APD50 (average raw data) (2Hz, 0.6-FOLD free ETPC (17µM)): 149
- APD50 percentage change compared to vehicle control (2Hz, 0.6-FOLD free ETPC (17µM)): 3%
- APD90 (average raw data) (2Hz, 0.6-FOLD free ETPC (17µM)): 232
- APD90 percentage change compared to vehicle control (2Hz, 0.6-FOLD free ETPC (17µM)): 2%
- Alternans (average raw data) (2Hz, 0.6-FOLD free ETPC (17µM)): 0.95
- Alternans percentage change compared to vehicle control (2Hz, 0.6-FOLD free ETPC (17µM)): -59%
- Beat Escape percentage change compared to vehicle control (2Hz, 0.6-FOLD free ETPC (17µM)): 0%
- EADs percentage change compared to vehicle control (2Hz, 0.6-FOLD free ETPC (17µM)): 0%
- ERP (average raw data) (2Hz, 0.6-FOLD free ETPC (17µM)): 0.46
- ERP percentage change compared to vehicle control (2Hz, 0.6-FOLD free ETPC (17µM)): 4%
- Max Dispersion (average raw data) (2Hz, 0.6-FOLD free ETPC (17µM)): 6.98
- Max Dispersion percentage change compared to vehicle control (2Hz, 0.6-FOLD free ETPC (17µM)): 7%
- RMP (average raw data) (2Hz, 0.6-FOLD free ETPC (17µM)): -82
- RMP percentage change compared to vehicle control (2Hz, 0.6-FOLD free ETPC (17µM)): -3%
- Refractoriness Escape percentage change compared to vehicle control (2Hz, 0.6-FOLD free ETPC (17µM)): 0%
- STV (average raw data) (2Hz, 0.6-FOLD free ETPC (17µM)): 0.58
- Triangulation (average raw data) (2Hz, 0.6-FOLD free ETPC (17µM)): 124
- Triangulation percentage change compared to vehicle control (2Hz, 0.6-FOLD free ETPC (17µM)): 2%
- Beat Escape (raw data) (2Hz, 0.6-FOLD free ETPC (17µM)): 0
- EADs (raw data) (2Hz, 0.6-FOLD free ETPC (17µM)): 0
- Refractoriness Escape (raw data) (2Hz, 0.6-FOLD free ETPC (17µM)): 0
- AMAX (average raw data) (2Hz, 6-FOLD free ETPC (17µM)): 103
- AMAX percentage change compared to vehicle control (2Hz, 6-FOLD free ETPC (17µM)): -2%
- APD30 (average raw data) (2Hz, 6-FOLD free ETPC (17µM)): 103
- APD30 percentage change compared to vehicle control (2Hz, 6-FOLD free ETPC (17µM)): -1%
- APD50 (average raw data) (2Hz, 6-FOLD free ETPC (17µM)): 139
- APD50 percentage change compared to vehicle control (2Hz, 6-FOLD free ETPC (17µM)): -3%
- APD90 (average raw data) (2Hz, 6-FOLD free ETPC (17µM)): 221
- APD90 percentage change compared to vehicle control (2Hz, 6-FOLD free ETPC (17µM)): -3%
- Alternans (average raw data) (2Hz, 6-FOLD free ETPC (17µM)): 4.34
- Alternans percentage change compared to vehicle control (2Hz, 6-FOLD free ETPC (17µM)): 90%
- Beat Escape percentage change compared to vehicle control (2Hz, 6-FOLD free ETPC (17µM)): 25%
- EADs percentage change compared to vehicle control (2Hz, 6-FOLD free ETPC (17µM)): 0%
- ERP (average raw data) (2Hz, 6-FOLD free ETPC (17µM)): 0.41
- ERP percentage change compared to vehicle control (2Hz, 6-FOLD free ETPC (17µM)): -7%
- Max Dispersion (average raw data) (2Hz, 6-FOLD free ETPC (17µM)): 10.50
- Max Dispersion percentage change compared to vehicle control (2Hz, 6-FOLD free ETPC (17µM)): 62%
- RMP (average raw data) (2Hz, 6-FOLD free ETPC (17µM)): -87
- RMP percentage change compared to vehicle control (2Hz, 6-FOLD free ETPC (17µM)): 3%
- Refractoriness Escape percentage change compared to vehicle control (2Hz, 6-FOLD free ETPC (17µM)): 0%
- STV (average raw data) (2Hz, 6-FOLD free ETPC (17µM)): 2.93
- Triangulation (average raw data) (2Hz, 6-FOLD free ETPC (17µM)): 117
- Triangulation percentage change compared to vehicle control (2Hz, 6-FOLD free ETPC (17µM)): -4%
- Beat Escape (raw data) (2Hz, 6-FOLD free ETPC (17µM)): 1
- EADs (raw data) (2Hz, 6-FOLD free ETPC (17µM)): 0
- Refractoriness Escape (raw data) (2Hz, 6-FOLD free ETPC (17µM)): 0
- AMAX (average raw data) (2Hz, 18-FOLD free ETPC (17µM)): 85
- AMAX percentage change compared to vehicle control (2Hz, 18-FOLD free ETPC (17µM)): -16%
- APD30 (average raw data) (2Hz, 18-FOLD free ETPC (17µM)): 110
- APD30 percentage change compared to vehicle control (2Hz, 18-FOLD free ETPC (17µM)): 4%
- APD50 (average raw data) (2Hz, 18-FOLD free ETPC (17µM)): 139
- APD50 percentage change compared to vehicle control (2Hz, 18-FOLD free ETPC (17µM)): -4%
- APD90 (average raw data) (2Hz, 18-FOLD free ETPC (17µM)): 227
- APD90 percentage change compared to vehicle control (2Hz, 18-FOLD free ETPC (17µM)): 2%
- Alternans (average raw data) (2Hz, 18-FOLD free ETPC (17µM)): 34.70
- Alternans percentage change compared to vehicle control (2Hz, 18-FOLD free ETPC (17µM)): 1417%
- Beat Escape percentage change compared to vehicle control (2Hz, 18-FOLD free ETPC (17µM)): 100%
- EADs percentage change compared to vehicle control (2Hz, 18-FOLD free ETPC (17µM)): 0%
- ERP (average raw data) (2Hz, 18-FOLD free ETPC (17µM)): 0.33
- ERP percentage change compared to vehicle control (2Hz, 18-FOLD free ETPC (17µM)): -25%
- Max Dispersion (average raw data) (2Hz, 18-FOLD free ETPC (17µM)): 42.23
- Max Dispersion percentage change compared to vehicle control (2Hz, 18-FOLD free ETPC (17µM)): 550%
- RMP (average raw data) (2Hz, 18-FOLD free ETPC (17µM)): -90
- RMP percentage change compared to vehicle control (2Hz, 18-FOLD free ETPC (17µM)): 10%
- Refractoriness Escape percentage change compared to vehicle control (2Hz, 18-FOLD free ETPC (17µM)): 0%
- STV (average raw data) (2Hz, 18-FOLD free ETPC (17µM)): 18.59
- Triangulation (average raw data) (2Hz, 18-FOLD free ETPC (17µM)): 117
- Triangulation percentage change compared to vehicle control (2Hz, 18-FOLD free ETPC (17µM)): -1%
- Beat Escape (raw data) (2Hz, 18-FOLD free ETPC (17µM)): 4
- EADs (raw data) (2Hz, 18-FOLD free ETPC (17µM)): 0
- Refractoriness Escape (raw data) (2Hz, 18-FOLD free ETPC (17µM)): 0
- AMAX (average raw data) (2Hz, 59-FOLD free ETPC (17µM)): 48
- AMAX percentage change compared to vehicle control (2Hz, 59-FOLD free ETPC (17µM)): -52%
- APD30 (average raw data) (2Hz, 59-FOLD free ETPC (17µM)): 106
- APD30 percentage change compared to vehicle control (2Hz, 59-FOLD free ETPC (17µM)): 4%
- APD50 (average raw data) (2Hz, 59-FOLD free ETPC (17µM)): 145
- APD50 percentage change compared to vehicle control (2Hz, 59-FOLD free ETPC (17µM)): 7%
- APD90 (average raw data) (2Hz, 59-FOLD free ETPC (17µM)): 268
- APD90 percentage change compared to vehicle control (2Hz, 59-FOLD free ETPC (17µM)): 34%
- Alternans (average raw data) (2Hz, 59-FOLD free ETPC (17µM)): 3.93
- Alternans percentage change compared to vehicle control (2Hz, 59-FOLD free ETPC (17µM)): 72%
- Beat Escape percentage change compared to vehicle control (2Hz, 59-FOLD free ETPC (17µM)): 100%
- EADs percentage change compared to vehicle control (2Hz, 59-FOLD free ETPC (17µM)): 0%
- ERP (average raw data) (2Hz, 59-FOLD free ETPC (17µM)): 0.41
- ERP percentage change compared to vehicle control (2Hz, 59-FOLD free ETPC (17µM)): -7%
- Max Dispersion (average raw data) (2Hz, 59-FOLD free ETPC (17µM)): 21.90
- Max Dispersion percentage change compared to vehicle control (2Hz, 59-FOLD free ETPC (17µM)): 237%
- RMP (average raw data) (2Hz, 59-FOLD free ETPC (17µM)): -74
- RMP percentage change compared to vehicle control (2Hz, 59-FOLD free ETPC (17µM)): -6%
- Refractoriness Escape percentage change compared to vehicle control (2Hz, 59-FOLD free ETPC (17µM)): 0%
- STV (average raw data) (2Hz, 59-FOLD free ETPC (17µM)): 2.81
- Triangulation (average raw data) (2Hz, 59-FOLD free ETPC (17µM)): 162
- Triangulation percentage change compared to vehicle control (2Hz, 59-FOLD free ETPC (17µM)): 64%
- Beat Escape (raw data) (2Hz, 59-FOLD free ETPC (17µM)): 4
- EADs (raw data) (2Hz, 59-FOLD free ETPC (17µM)): 0
- Refractoriness Escape (raw data) (2Hz, 59-FOLD free ETPC (17µM)): 0
- TdP identification by pro-arrhythmic score (at 10-fold human free ETPC, score >10 unsafe, <10 safe): TdP positive
- pro-arrhythmic score (at 100, 300, and 1,000 μM): above 40
- pro-arrhythmic score (at therapeutic exposure): below 10
